Results: US9975900B2, “Substituted imidazo[1,2-α]pyrazines for treating spinal muscular atrophy” (Hoffmann-La Roche Inc., priority 2014, dated 2018)
Counter-ions that a name gives are not always drawn.

Columns and labels:
[1] = test system: SMN protein in SMA patient fibroblast cells (GM03813); assay: SMN protein assay (HTRF) in cultured cells; type: cell-based; details: Homo sapiens, SMA Type 1 patient fibroblasts, 48 hours; for EC (1.5-fold): 7-point concentration curve, concentration giving 1.5 times SMN protein vs vehicle, read-out: EC1.5x SMN protein (EC1.5x concentration for SMN protein expression); for maximal fold induction: fold increase relative to vehicle control, read-out: Max. fold increase of SMN protein
Procedure, shortened: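 SMA patient fibroblasts (5,000 cells/well, DMEM-10% FBS) treated 48 h at 37 °C with 7-point, 3.16-fold dilutions, in triplicate. Lysates (RIPA) read overnight by HTRF with anti-SMN d2/cryptate at 665/620 nm. ΔF versus blank gives fold increase over vehicle, from which EC1.5× and maximum fold increase are derived.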

[2] = test system: full length SMN2 minigene mRNA (HEK293H cells stably transfected with the SMN2-A minigene construct); assay: RT-qPCR assay for SMN2 minigene pre-mRNA splicing in cultured cells; type: cell-based; details: Homo sapiens, HEK293-H, 24 hours, 7-point concentration curve, concentration giving 1.5-fold FL SMN2mini mRNA vs vehicle, read-out: EC1.5x minigene (EC1.5x concentration for production of full length SMN2 minigene mRNA)
Procedure, shortened: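 HEK293H cells stably carrying SMN2-A minigene were treated 24 h at 37 °C with a 7-point, 3.16-fold compound series, in duplicate. Minigene-specific exon 7–exon 8 mRNA measured by multiplex RT-qPCR with GAPDH normalisation; fold over vehicle by modified ΔΔCt, reported as EC1.5×.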

Work on `Cc1cn2cc(NC(=O)c3ccc(N4CCNC(C(C)C)C4)cc3F)ncc2n1` (stereo not drawn) [Example 45, 2-fluoro-N-(2-methylimidazo[1,2-a]pyrazin-6-yl)-4-(3-propan-2-ylpiperazin-1-yl)benzamide hydrochloride] yielded an EC (1.5-fold) [1] of 0.264 µM, a maximal fold induction [1] of 1.76 and an EC (1.5-fold) [2] of 0.106 µM.
With `CC[C@@H]1CN(c2ccc(C(=O)Nc3cn4cc(C)nc4cn3)c(OC)n2)CCN1` [Example 46, 6-[(3R)-3-ethylpiperazin-1-yl]-2-methoxy-N-(2-methylimidazo[1,2-a]pyrazin-6-yl)pyridine-3-carboxamide hydrochloride] the EC (1.5-fold) [1] was 0.58 µM, the maximal fold induction [1] was 1.67 and the EC (1.5-fold) [2] was 0.189 µM.
`COc1nc(N2CCNCC2)ccc1C(=O)Nc1cn2cc(C)nc2cn1` [Example 47, 2-methoxy-N-(2-methylimidazo[1,2-a]pyrazin-6-yl)-6-piperazin-1-ylpyridine-3-carboxamide hydrochlorid] was tested, and the EC (1.5-fold) [1] was 0.551 µM, the maximal fold induction [1] was 1.64 and the EC (1.5-fold) [2] was 0.129 µM.
In the case of `Cc1cn2cc(NC(=O)c3ccc(N4CCC(N5CCCC5)CC4)cc3F)nc(C)c2n1` [Example 48, N-(2,8-dimethylimidazo[1,2-a]pyrazin-6-yl)-2-fluoro-4-(4-pyrrolidin-1-ylpiperidin-1-yl)benzamide], the EC (1.5-fold) [1] is reported as 0.23 µM, the maximal fold induction [1] is reported as 1.65 and the EC (1.5-fold) [2] is reported as 0.0266 µM.
For `CCOc1cc(N2CCC(N3CC(OC)C3)CC2)ccc1C(=O)Nc1cn2cc(C)nc2c(C)n1` [Example 49, N-(2,8-dimethylimidazo[1,2-a]pyrazin-6-yl)-2-ethoxy-4-[4-(3-methoxyazetidin-1-yl)piperidin-1-yl]benzamide], the EC (1.5-fold) [1] was 1.98 µM, the maximal fold induction [1] was 1.51 and the EC (1.5-fold) [2] was 0.223 µM.
